Source: patent publication US10716788B2, “Methods for treating MS using pyrimidine and pyridine compounds with BTK inhibitory activity” (Merck Patent GmbH, priority 2015, dated 2020)

Assays:
[1] = tested on: PLP139-151 induced EAE in female SJL mice; assay: PLP139-151 induced EAE in SJL mice (relapsing remitting mouse model of MS); type: in vivo; conditions: for relapse activity / relapses: FIG. 2 / FIG. 10
[2] = tested on: RA models; conditions: 3 mg/kg PO; cited from earlier work
[3] = prophylactic treatment from Day 0 post-induction, 0.3, 1.0, 3 mg/kg PO QD, FIG. 1 / FIG. 9
[4] = prophylactic treatment from Day 0 post-induction, 0.3, 1.0, 3 mg/kg PO QD
[5] = therapeutic dosing from Day 9 post-induction, 1.0, 3, 10 mg/kg PO QD, FIG. 15

SMILES | disease onset ([1]; prophylactic treatment from Day 0 post-induction, 0.3, 1.0, 3 mg/kg PO QD, FIG. 1) | disease severity (clinical score) [1, 3] | relapse activity / relapses [1, 4] | disease severity (clinical score) ([1]; therapeutic treatment, start at remission, 1, 3, 10 mg/kg PO QD, FIG. 3) | relapse activity ([1]; therapeutic treatment, start at remission, 1, 3, 10 mg/kg PO QD, FIG. 4) | efficacy on RA models [2] | number of relapses ([1]; dosing from Day 7 post-induction (before onset of EAE), 1.0 and 10 mg/kg PO QD, FIG. 21) | incidence of disease ([1]; prophylactic treatment from Day 0 post-induction, 0.3, 1.0, 3 mg/kg PO QD, FIG. 10) | disease severity (clinical score) ([1]; semi-therapeutic dosing from Day 7 post-induction (before onset of EAE), 1.0 and 10 mg/kg PO QD, FIG. 20) | disease severity (clinical score) ([1]; therapeutic dosing from Day 9 post-induction, 1.0, 3, 10 mg/kg PO QD, FIG. 14) | relapses [1, 5] | time to first relapse [1, 5] | disease severity (clinical score) ([1]; therapeutic dosing from Day 17 post-induction, 1.0 and 10 mg/kg PO QD, FIG. 18) | number of relapses ([1]; therapeutic dosing from Day 17 post-induction, 1.0 and 10 mg/kg PO QD, FIG. 19)
C=CC(=O)N1CCC(CNc2ncnc(N)c2-c2ccc(Oc3ccccc3)cc2)CC1 [Compound (1), 1-(4-(((6-amino-5-(4-phenoxyphenyl)pyrimidin-4-yl)amino)methyl)piperidin-1-yl)prop-2-en-1-one] | delayed onset | reduced disease severity | reduced relapse activity | reduced disease severity | reduced relapse activity | – | – | – | – | – | – | – | – | –
C=CC(=O)N1CCC(F)(CNc2ncnc(N)c2-c2ccc(Oc3ccccc3)cc2)CC1 [Compound (2), 1-(4-(((6-amino-5-(4-phenoxyphenyl)pyrimidin-4-yl)amino)methyl)-4-fluoropiperidin-1-yl)prop-2-en-1-one] | – | significantly decreases disease severity | decreased | – | – | efficacious | reduced the number of relapses | decreased incidence of disease | reduced disease severity | reduced disease severity | decreased relapses | prolonged time to first relapse | reduced disease severity | reduced the number of relapses
